Experimental data taken from PubChem BioAssay AID743299 (The Scripps Research Institute Molecular Screening Center, 2014).

Molecular target: methionyl-tRNA synthetase (Trypanosoma brucei brucei)
Assay: inhibition of trypanosomal methionyl-tRNA synthetase – biochemical, fluorescence polarization, dose response, round 2, orthogonal assay for T. brucei MetRS inhibitor project, late-stage follow-up (AID 743299)
Details: recombinant T. brucei MetRS

IC50: 181 nM
SMILES: CCN(CC)C(=O)C(=O)c1cn(CC(=O)Nc2cccc(C(F)(F)F)c2)c2ccccc12
